{"source": "patent US10363262B1", "about": "“Composition for treating wound comprising gypenoside LXXV” (Intelligent Synthetic Biology Center, priority 2018, dated 2019)", "molecules": {"B1": {"name": "CTGF: connective tissue growth factor, applied to human dermal fibroblasts (protein, UniProt P29279 27-349, looked up)", "CCN family member 2": "QNCSGPCRCPDEPAPRCPAGVSLVLDGCGCCRVCAKQLGELCTERDPCDPHKGLFCHFGSPANRKIGVCTAKDGAPCIFGGTVYRSGESFQSSCKYQCTCLDGAVGCMPLCSMDVRLPSPDCPFPRRVKLPGKCCEEWVCDEPKDQTVVGPALAAYRLEDTFGPDPTMIRANCLVQTTEWSACSKTCGMGISTRVTNDNASCRLEKQSRLCMVRPCEADLEENIKKGKKCIRTPKISKPIKFELSGCTSMKTYRAKFCGVCTDGRCCTPHRTTTLPVEFKCPDGEVMKKNMMFIKTCACHYNCPGDNDIFESLYYRKMYGDMA"}}, "key": {"[1]": {"settings": "compared with ginsenosides having a large size (about 1,000 Da); cited from earlier work"}, "[2]": {"system": "HaCaT keratinocytes", "experiment": "scratch wound closure assay (migration of HaCaT keratinocytes)", "format": "cell-based", "protocol": "Specifically, HaCaT keratinocytes were cultured in a 6-well plate and the plate was scratched using a 200 μL micropipette tip. The remainder was washed with PBS and the cells were cultured for 24 hours, treated with 10 μM ginsenoside or DMSO, and the gap regions were measured (FIG. 1B).\n(§1) Each cell was seeded into a 96-well plate and cultured at 37° C. for 48 hours. The cultured cells were treated with G75, MA, or DMSO at a concentration of 5 μM or 10 μM. After 48 hours, the proliferation of these cells was confirmed using the non-radioactive cell proliferation assay kit (Promega, WI, USA), and migration of these cells was confirmed in the same manner as in Example 1-2 (FIG. 2)."}, "[3]": {"system": "HaCaT keratinocytes", "experiment": "non-radioactive cell proliferation assay, HaCaT keratinocytes", "format": "cell-based", "protocol": "as §1"}, "[4]": {"system": "CTGF protein", "experiment": "western blot of CTGF protein in wound skin tissue", "format": "in vivo, mouse", "settings": "after 3 days", "protocol": "To examine whether the G75 treatment increases the expression level of CTGF protein, each wound was treated with G75, and after 3 days, the skin tissue was collected and subjected to western blot."}, "[5]": {"system": "dorsal excisional wound tissue", "experiment": "RNA sequencing of dorsal excisional wound tissue", "format": "in vivo, mouse", "settings": "third day after treatment; p 0.05 or below and change of 1.7-fold or greater", "protocol": "(§2) To examine the process of G75 involvement in wound recovery, RNA sequencing was performed. After creating an excision wound on the dorsal area of each mouse, the wound was treated with G75 or the vehicle control, and RNA was isolated from the dorsal excisional wound tissue on the third day after the treatment and analyzed. When the p value was 0.05 or below and there was a change of 1.7-fold or greater, the change was considered to significant."}, "[6]": {"system": "HaCaT keratinocytes", "experiment": "MTT analysis of proliferation of HaCaT keratinocytes", "format": "cell-based", "settings": "48 hours", "protocol": "HaCaT keratinocytes were treated with major ginsenosides (e.g., Rb1, Rd, Re, and Rg1) and other ginsenosides (e.g., C-K, F1, F2, G17, G75, PPD, PPT, Rg2, Rg3, Rh1, and Rh2) at a concentration of 0.01 μM to 20 μM for 48 hours and then subjected to MTT analysis (FIG. 1A). As the control group, DMSO was used."}, "[7]": {"system": "CTGF", "experiment": "RNA sequencing, growth factor mRNA level in wound tissue", "format": "in vivo, mouse", "settings": "third day after treatment, versus vehicle control", "protocol": "as §2\n(§3) To confirm the effect of G75 on the growth factors involved in wound healing, the mRNA levels of growth factors were measured based on the results of RNA sequencing analysis."}, "[8]": {"system": "Hgf", "experiment": "RNA sequencing, growth factor mRNA level in wound tissue", "format": "in vivo, mouse", "settings": "third day after treatment, versus vehicle control", "protocol": "as §2, §3"}, "[9]": {"system": "Angpt1", "experiment": "RNA sequencing, growth factor mRNA level in wound tissue", "format": "in vivo, mouse", "settings": "third day after treatment, versus vehicle control", "protocol": "as §2, §3"}, "[10]": {"system": "Vegf alpha", "experiment": "RNA sequencing, growth factor mRNA level in wound tissue", "format": "in vivo, mouse", "settings": "third day after treatment, versus vehicle control", "protocol": "as §2, §3"}, "[11]": {"system": "Hbegf", "experiment": "RNA sequencing, growth factor mRNA level in wound tissue", "format": "in vivo, mouse", "settings": "third day after treatment, versus vehicle control", "protocol": "as §2, §3"}, "[12]": {"system": "Tgf beta1", "experiment": "RNA sequencing, growth factor mRNA level in wound tissue", "format": "in vivo, mouse", "settings": "third day after treatment, versus vehicle control", "protocol": "as §2, §3"}, "[13]": {"system": "Fgf7", "experiment": "RNA sequencing, growth factor mRNA level in wound tissue", "format": "in vivo, mouse", "settings": "third day after treatment, versus vehicle control", "protocol": "as §2, §3"}, "[14]": {"system": "Fgf10", "experiment": "RNA sequencing, growth factor mRNA level in wound tissue", "format": "in vivo, mouse", "settings": "third day after treatment, versus vehicle control", "protocol": "as §2, §3"}, "[15]": {"system": "Csf2", "experiment": "RNA sequencing, growth factor mRNA level in wound tissue", "format": "in vivo, mouse", "settings": "third day after treatment, versus vehicle control", "protocol": "as §2, §3"}, "[16]": {"system": "Igf1", "experiment": "RNA sequencing, growth factor mRNA level in wound tissue", "format": "in vivo, mouse", "settings": "third day after treatment, versus vehicle control", "protocol": "as §2, §3"}, "[17]": {"system": "Tgf alpha", "experiment": "RNA sequencing, growth factor mRNA level in wound tissue", "format": "in vivo, mouse", "settings": "third day after treatment, versus vehicle control", "protocol": "as §2, §3"}, "[18]": {"system": "Fgf2", "experiment": "RNA sequencing, growth factor mRNA level in wound tissue", "format": "in vivo, mouse", "settings": "third day after treatment, versus vehicle control", "protocol": "as §2, §3"}, "[19]": {"system": "excision wound mouse model", "experiment": "in vivo wound closure activity in excision wound mouse model", "settings": "ICR mice, once a day for 9 days, topical", "protocol": "The in vivo wound closure activity was measured in an excision wound mouse model.\nEight-week-old male ICR mice were purchased from Narabiotech (Korea), acclimatized for one week, and used in the experiment. Two full-thickness circular wounds (diameter: 5 mm) were created on the dorsal region of each mouse, and the progressive changes in wound closure were measured relative to the original wound area. G75 (5 μM/wound) or MA (10 μM/wound) was then applied on each wound area once a day for 9 days. DMSO-propylene glycol was used as a vehicle control."}, "[20]": {"system": "CTGF", "experiment": "ELISA assay of CTGF production by human dermal fibroblasts", "format": "cell-based", "settings": "supernatant of human dermal fibroblasts"}, "[21]": {"system": "human dermal fibroblasts", "experiment": "non-radioactive cell proliferation assay, human dermal fibroblasts", "format": "cell-based", "settings": "10 μM, 48 hours", "protocol": "as §1"}, "[22]": {"system": "human dermal fibroblasts", "experiment": "proliferation of human dermal fibroblasts treated with CTGF", "format": "cell-based"}}}
{"molecule": "CC(C)=CCC[C@](C)(O[C@@H]1O[C@H](CO[C@@H]2O[C@H](CO)[C@@H](O)[C@H](O)[C@H]2O)[C@@H](O)[C@H](O)[C@H]1O)[C@H]1CC[C@]2(C)[C@@H]1[C@H](O)C[C@@H]1[C@@]3(C)CC[C@H](O)C(C)(C)[C@@H]3CC[C@]12C", "note": "[G75, gypenoside LXXV]", "values": [{"measurement": "in vivo absorption rate", "setting": "[1]", "result": "greater in vivo absorption rate"}, {"measurement": "cell migration", "setting": "[2]; Example 2-1, 5 μM", "result": "significant effect"}, {"measurement": "cell migration", "setting": "[2]; Example 2-1, 10 μM", "result": "significant effect"}, {"measurement": "migration effect (gap regions)", "setting": "[2]; HaCaT keratinocytes, 10 μM, compared to DMSO control", "result": "highest migration effect"}, {"measurement": "effects compared with MA at the same concentration", "setting": "[3]; cell proliferation and cell migration, HaCaT keratinocytes and human dermal fibroblasts", "result": "superior effects to MA"}, {"measurement": "expression level of CTGF protein", "setting": "[4]", "result": "significantly increased"}, {"measurement": "number of genes whose expression level was changed", "setting": "[5]", "result": 1048}, {"measurement": "cell proliferation effect relative to the control group", "setting": "[6]; 0.01 μM to 20 μM, DMSO control", "result": "about 136.8%"}, {"measurement": "cell proliferation effect", "setting": "[6]; 0.01 μM to 20 μM, compared to other ginsenosides / control", "result": "highest cell proliferation effect"}, {"measurement": "concentration at which the highest cell proliferation effect was shown", "setting": "[6]", "result": 10, "unit": "µM"}, {"measurement": "Fold change CTGF mRNA", "setting": "[7]", "result": 1.879}, {"measurement": "Fold change Hgf mRNA", "setting": "[8]", "result": 1.191}, {"measurement": "Fold change Angpt1 mRNA", "setting": "[9]", "result": 1.796}, {"measurement": "Fold change Vegf alpha mRNA", "setting": "[10]", "result": 1.281}, {"measurement": "Fold change Hbegf mRNA", "setting": "[11]", "result": 1.267}, {"measurement": "Fold change Tgf beta1 mRNA", "setting": "[12]", "result": 1.392}, {"measurement": "Fold change Fgf7 mRNA", "setting": "[13]", "result": 1.789}, {"measurement": "Fold change Fgf10 mRNA", "setting": "[14]", "result": 1.750}, {"measurement": "Fold change Csf2 mRNA", "setting": "[15]", "result": 5.545}, {"measurement": "Fold change Igf1 mRNA", "setting": "[16]", "result": 1.367}, {"measurement": "Fold change Tgf alpha mRNA", "setting": "[17]", "result": 1.504}, {"measurement": "Fold change Fgf2 mRNA", "setting": "[18]", "result": 8.143}, {"measurement": "wound area compared to vehicle control", "setting": "[19]; 5 μM/wound", "result": "wound areas became smaller"}, {"measurement": "amount of CTGF production", "setting": "[20]", "result": "increased the amount of CTGF production"}]}
{"molecule": "madecassoside [reference compound]", "values": [{"measurement": "cell proliferation", "setting": "[3]; HaCaT keratinocytes, 10 μM, 48 hours", "result": "slight effect"}, {"measurement": "cell proliferation", "setting": "[21]", "result": "slight effect"}, {"measurement": "wound area compared to vehicle control", "setting": "[19]; 10 μM/wound", "result": "wound areas became smaller"}]}
{"molecule": "B1", "values": [{"measurement": "proliferation compared to the vehicle control", "setting": "[22]", "result": "higher level of proliferation"}]}
